Laboratory results as given in patent EP3572411A1, “THIAZOLE DERIVATIVES AS METALLO-BETA-LACTAMASE INHIBITORS” (Antabio SAS, priority 2018, dated 2019).
Where two headings read alike, the source gives them in different places.

Columns and labels:
VIM-1 = biological target: T1, VIM-1 (Pseudomonas aeruginosa, UniProt A0A0F7KYQ8); assay: In vitro enzyme inhibition assay (imipenem hydrolysis, UV 299 nm); format: biochemical
T1 construct: VIM-1; VIM-2; IMP-1)
Procedure: (§1) In vitro enzyme inhibition assays: Enzyme inhibition assays are performed using purified MBL enzymes (NDM-1; VIM-1; VIM-2; IMP-1) in 10mM HEPES buffer pH 7.5 in 96-well microtiter plates. Imipenem (300µM) is used as substrates and its hydrolysis is followed at UV 299 nm during 10mn every 30 seconds using a Perkin Elmer Envision UV fluorescence plate reader. Hydrolysis rate data in presence of a range of inhibitors are analysed using Dotmatics database software and calculated IC50 values are converted to Ki values using the Cheng-Prusoff equation. Ki = IC50 / (1+([S]/Km) and where the Km values for […] are 70 µM, 1.5 µM, 9 µM and 25 µM respectively. Compound dilution is performed in DMSO. Mean Ki values from multiple experiments are presented. Results are shown in Table 1.

VIM-2 = biological target: T2, VIM-2 (Escherichia coli, UniProt Q5U7L7); assay: as above; format: biochemical
T2 construct: VIM-1; VIM-2
Procedure: as §1

IMP-1 = biological target: T3, IMP-1 (Serratia marcescens, UniProt P52699); assay: as above; format: biochemical
T3 construct: VIM-1; VIM-2
T3 sequence (P52699 19-246, looked up, species assumed): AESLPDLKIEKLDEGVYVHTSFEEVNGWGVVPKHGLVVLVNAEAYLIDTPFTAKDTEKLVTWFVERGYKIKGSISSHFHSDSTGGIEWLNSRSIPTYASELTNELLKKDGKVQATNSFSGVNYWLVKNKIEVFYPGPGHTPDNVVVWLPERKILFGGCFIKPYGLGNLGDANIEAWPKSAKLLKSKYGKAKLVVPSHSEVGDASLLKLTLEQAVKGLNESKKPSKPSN
Procedure: as §1

NDM-1 = biological target: T4, NDM-1 (Klebsiella pneumoniae, UniProt C7C422); assay: as above; format: biochemical
T4 construct: VIM-1; VIM-2
T4 sequence (C7C422 29-270, looked up): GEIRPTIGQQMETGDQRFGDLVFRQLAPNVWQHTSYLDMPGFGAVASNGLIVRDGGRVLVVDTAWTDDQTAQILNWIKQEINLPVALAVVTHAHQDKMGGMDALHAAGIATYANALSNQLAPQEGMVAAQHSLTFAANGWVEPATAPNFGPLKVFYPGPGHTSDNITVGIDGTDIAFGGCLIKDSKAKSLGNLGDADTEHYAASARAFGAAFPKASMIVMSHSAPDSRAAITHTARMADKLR
Procedure: as §1

[1] = test system: NTBC024 (K. pneumoniae strain expressing VIM-19, TEM-1 and CTX-M-3); assay: Antimicrobial susceptibility testing (broth micro-dilution, Meropenem potentiation); format: cell-based; conditions: MIC of Meropenem with compound at constant 8 µg/mL; CAMHB, 18-20 hours, 37°C
Procedure: (§2) Antimicrobial susceptibility testing: The operation is carried out using the 'broth micro-dilution method' according to the protocols M07-A8 established by the Clinical Laboratory Standards Institute (CLSI). Serial dilutions of the β-lactam antibiotic (Meropenem) are prepared in 96-well plates in cation-adjusted Mueller-Hinton broth (CAMHB); the concentration range is defined from 0.03 mg/L to 512 mg/L. The compounds are added at a constant concentration of 8 µg/mL. A bacterial inoculum of each strain (clinical isolates) is adjusted to a 0.5 McFarland turbidity standard in physiologic serum (0.9 % NaCl), then diluted 1:100 in CAMHB and added to each well to give a final bacterial cell number of 5x10^5 CFU/well. After incubation for 18-20 hours in a heating chamber at 37°C, the growth inhibition is evaluated by the absence of any bacterial development.
(§3) The compounds of Table 2 are added at a constant concentration of 8 µg/mL. The clinical strains used in these potentiation experiments are NTBC020 (E. coli strain expressing NDM-1, TEM-1 and CTX-M-15); NTBC035-2 (K. pneumoniae strain expressing NDM-1, CMY-4 and SHV-11); NTBC104-1 (K. pneumoniae strain expressing NDM-1 and SHV-11); NTBC123 (K. pneumoniae strain expressing NDM-1); NTBC018 (C. freundii strain expressing VIM-2); NTBC024 (K. pneumoniae strain expressing VIM-19, TEM-1 and CTX-M-3); NTBC042 (E. coli strain expressing VIM-1, TEM-1 , CTX-M-15, SHV-12); NTBC055 (E. Coli strain expressing VIM-1); NTBC062 (K. pneumoniae strain expressing IMP-1 and TEM-1) and NTBC039 (K. oxytoca strain expressing IMP-28). • For NDM-1 the Ki values of < 0.05 µM are designated (A); Ki values of 0.05 - 0.2 µM are designated (B); Ki values of 0.2 - 0.4 µM are designated (C). • For VIM-1 the Ki values of < 0.2 µM are designated (A); Ki values of 0.2 - 0.5 µM are designated (B); Ki values of 0.5 - 0.8 µM are designated (C). • For VIM-2 the Ki values of < 0.02 µM are designated (A); Ki values of 0.02 - 0.05 µM are designated (B); Ki values of 0.05 - 0.2 µM are designated (C). • For IMP-1 the Ki values of < 0.5 µM are designated (A); Ki values of 0.5 - 1 µM are designated (B); Ki values of 1 - 8 µM are designated (C). • MIC values of < 1 µg/mL are designated (A); MIC values of 1 - 2 µg/mL are designated (B); • MIC values of 2 - 128 µg/mL are designated (C). Table 1. Ki results

[2] = test system: NTBC042 (E. coli strain expressing VIM-1, TEM-1 , CTX-M-15, SHV-12); assay: as above; format: cell-based; conditions: MIC of Meropenem with compound at constant 8 µg/mL; CAMHB, 18-20 hours, 37°C
Procedure: as §2, §3

[3] = test system: NTBC062 (K. pneumoniae strain expressing IMP-1 and TEM-1); assay: as above; format: cell-based; conditions: MIC of Meropenem with compound at constant 8 µg/mL; CAMHB, 18-20 hours, 37°C
Procedure: as §2, §3

[4] = test system: NTBC018 (C. freundii strain expressing VIM-2); assay: as above; format: cell-based; conditions: MIC of Meropenem with compound at constant 8 µg/mL; CAMHB, 18-20 hours, 37°C
Procedure: as §2, §3

[5] = test system: NTBC020 (E. coli strain expressing NDM-1, TEM-1 and CTX-M-15); assay: as above; format: cell-based; conditions: MIC of Meropenem with compound at constant 8 µg/mL; CAMHB, 18-20 hours, 37°C
Procedure: as §2, §3

[6] = test system: NTBC035-2 (K. pneumoniae strain expressing NDM-1, CMY-4 and SHV-11); assay: as above; format: cell-based; conditions: MIC of Meropenem with compound at constant 8 µg/mL; CAMHB, 18-20 hours, 37°C
Procedure: as §2, §3

[7] = test system: NTBC123 (K. pneumoniae strain expressing NDM-1); assay: as above; format: cell-based; conditions: MIC of Meropenem with compound at constant 8 µg/mL; CAMHB, 18-20 hours, 37°C
Procedure: as §2, §3

[8] = test system: NTBC104-1 (K. pneumoniae strain expressing NDM-1 and SHV-11); assay: as above; format: cell-based; conditions: MIC of Meropenem with compound at constant 8 µg/mL; CAMHB, 18-20 hours, 37°C
Procedure: as §2, §3

[9] = test system: NTBC055 (E. Coli strain expressing VIM-1); assay: as above; format: cell-based; conditions: MIC of Meropenem with compound at constant 8 µg/mL; CAMHB, 18-20 hours, 37°C
Procedure: as §2, §3

[10] = test system: NTBC039 (K. oxytoca strain expressing IMP-28); assay: as above; format: cell-based; conditions: MIC of Meropenem with compound at constant 8 µg/mL; CAMHB, 18-20 hours, 37°C
Procedure: as §2, §3

[11] = purified enzyme, 10mM HEPES pH 7.5, Imipenem 300µM; mean Ki from IC50 by Cheng-Prusoff; read-out: Ki (µM) VIM-1
[12] = purified enzyme, 10mM HEPES pH 7.5, Imipenem 300µM; mean Ki from IC50 by Cheng-Prusoff; read-out: Ki (µM) VIM-2
[13] = purified enzyme, 10mM HEPES pH 7.5, Imipenem 300µM; mean Ki from IC50 by Cheng-Prusoff; read-out: Ki (µM) IMP-1
[14] = purified enzyme, 10mM HEPES pH 7.5, Imipenem 300µM; mean Ki from IC50 by Cheng-Prusoff; read-out: Ki (µM) NDM-1

| Molecule | Ki (VIM-1; [11]) [µM] | Ki (VIM-2; [12]) [µM] | Ki (IMP-1; [13]) [µM] | Ki (NDM-1; [14]) [µM] | MIC Strain NTBC024 [1] | MIC Strain NTBC042 [2] | MIC Strain NTBC062 [3] | MIC Strain NTBC018 [4] | MIC Strain NTBC020 [5] | MIC Strain NTBC035-2 [6] | MIC Strain NTBC123 [7] | MIC Strain NTBC104-1 [8] | MIC Strain NTBC055 [9] | MIC Strain NTBC039 [10] | Ki (VIM-1; read-out: Ki (µM) VIM-1; purified enzyme, 10mM HEPES pH 7.5, Imipenem 300µM; mean Ki from IC50 by Cheng-Prusoff) [µM] | Ki (VIM-2; read-out: Ki (µM) VIM-2; purified enzyme, 10mM HEPES pH 7.5, Imipenem 300µM; mean Ki from IC50 by Cheng-Prusoff) [µM] | Ki (IMP-1; read-out: Ki (µM) IMP-1; purified enzyme, 10mM HEPES pH 7.5, Imipenem 300µM; mean Ki from IC50 by Cheng-Prusoff) [µM] | Ki (NDM-1; read-out: Ki (µM) NDM-1; purified enzyme, 10mM HEPES pH 7.5, Imipenem 300µM; mean Ki from IC50 by Cheng-Prusoff) [µM] |
| --- | --- | --- | --- | --- | --- | --- | --- | --- | --- | --- | --- | --- | --- | --- | --- | --- | --- | --- |
| 3-(3-carbamimidamidopropyl)-1-[({4-[(4-carboxy-1,3-thiazol-5-yl)sulfamoyl]-2-fluorophenyl}carbamoyl)methyl]-1H-imidazol-3-ium [Example 17] | < 0.2 | < 0.02 | 1 to 8 | < 0.05 | (B) (MIC values of 1 - 2 µg/mL are designated (B)) | d(B) (MIC values of 1 - 2 µg/mL are designated (B)) | (B) (MIC values of 1 - 2 µg/mL are designated (B)) | (A) (MIC values of < 1 µg/mL are designated (A)) | (C) (MIC values of 2 - 128 µg/mL are designated (C)) | (B) (MIC values of 1 - 2 µg/mL are designated (B)) | (C) (MIC values of 2 - 128 µg/mL are designated (C)) | (C) (MIC values of 2 - 128 µg/mL are designated (C)) | (B) (MIC values of 1 - 2 µg/mL are designated (B)) | (C) (MIC values of 2 - 128 µg/mL are designated (C)) | – | – | – | – |
| 3-[({4-[(4-carboxy-1,3-thiazol-5-yl)sulfamoyl]-2-fluorophenyl}carbamoyl)methyl]-1-[2-(trimethylammonio)ethyl]imidazol-1-ium [Example 21] | < 0.2 | < 0.02 | 1 to 8 | < 0.05 | (C) (MIC values of 2 - 128 µg/mL are designated (C)) | (B) (MIC values of 1 - 2 µg/mL are designated (B)) | (B) (MIC values of 1 - 2 µg/mL are designated (B)) | (B) (MIC values of 1 - 2 µg/mL are designated (B)) | (C) (MIC values of 2 - 128 µg/mL are designated (C)) | (C) (MIC values of 2 - 128 µg/mL are designated (C)) | (C) (MIC values of 2 - 128 µg/mL are designated (C)) | (B) (MIC values of 1 - 2 µg/mL are designated (B)) | (B) (MIC values of 1 - 2 µg/mL are designated (B)) | (B) (MIC values of 1 - 2 µg/mL are designated (B)) | – | – | – | – |
| C[n+]1nnn(CC(=O)Nc2ccc(S(=O)(=O)Nc3scnc3C(=O)[O-])cc2F)c1N [Example 26, 5-amino-1-[({4-[(4-carboxy-1,3-thiazol-5-yl)sulfamoyl]-2-fluorophenyl}carbamoyl)methyl]-4-methyl-1H-1,2,3,4-tetrazol-4-ium] | – | – | – | – | – | – | – | – | – | – | – | – | – | – | 0.2 to 0.5 | 0.05 to 0.2 | 0.5 to 1 | < 0.05 |
